“And” between values parts separate entries of the source, which are not always exact repeats. Equal values may be shown once. Read-outs that look alike come from different tables or passages of the source.
Tests used:
[1] = system: L. mexicana cas9 cells; experiment: Growth curve of cas9 cells with selection agents; type: cell-based, Leishmania mexicana; settings: 5 μM tubercidin, 5 μg/mL blasticidin, 20 µg/mL puromycin, 1 µM formycin B
Protocol: The growth rates of the L. mexicana promastigotes were determined in the standard HOMEM medium supplemented with 10% FBS, in 12-well plates, in triplicate. After every 24 h, cells were counted in a sample of the culture, using either a Neubauer hemocytometer chamber (Hawksley, Birmingham, UK) or by a coulter particle counter and size analyzer (Beckman, Brea, CA, USA) to count the cells in triplicate. An average of the triplicate readings was taken and plotted using GraphPad Prism 8 software to obtain the growth curves.

[2] = system: L. mexicana NT3-KO promastigotes; experiment: Radiolabel transport assay in NT3-KO cells; type: cell-based, Leishmania mexicana; settings: for rate of uptake: NT3-KO cells; for upregulation of uptake rate in NT3-KO relative to cas9: adenosine and inosine at 100 nM, separate experiments listed singly
Protocol: (§1) Transport assays were performed exactly as described previously. Briefly, 10^7 cells in 100 μL of assay buffer (AB) were mixed with an equal volume of radiolabel at 2× concentration for a preset time. The incubation was terminated by the addition of 700 μL of “Stop solution”, being ice-cold 1 mM solution of unlabelled permeant, followed by immediate centrifugation through an oil layer in a microfuge at 13,000 rpm. This causes the cell pellet to reside under the oil layer and isolated from residual radiolabel in the assay buffer. The tubes were flash-frozen in liquid nitrogen and the bottom tip, containing the cell pellet, cut off and collected in a scintillation tube. Cells were solubilized by gentle shaking after addition of a 2% SDS solution, before the addition of scintillation fluid (Scintilogic U, Lablogic, Sheffield, UK); the tubes were left to stand in the dark overnight before counting in a 300SL Hidex Scintillation Counter (Lablogic). Linear and nonlinear regression analyses were carried out using GraphPad Prism versions 8.0 and higher. […] However, all parameters, including Km, Vmax, Ki, given are the average of at least three separate, independent determinations; errors given are standard errors, unless otherwise specified.

[3] = target: T1, TvagENT3 (Trichomonas vaginalis, UniProt A2E5Q3); settings: TvagENT3 expressed in T. brucei; cited from earlier work
[4] = system: L. mexicana cas9 cells; experiment: Radiolabel transport assay in cas9 cells; type: cell-based, Leishmania mexicana; settings: cas9 cells
Protocol: as §1

[5] = target: T1, TvagENT3; experiment: cell-based
Protocol: as §1

[6] = system: L. mexicana NT1-KO promastigotes; experiment: Resazurin (Alamar blue) drug sensitivity assay, NT1-KO line; type: cell-based, Leishmania mexicana
Protocol: The assay is based on the reduction of the dye resazurin (Alamar blue) by live but not dead cells and was performed with various strains of Leishmania mexicana promastigotes, exactly as described. Briefly, doubling dilutions starting at 100 µM were set up over 2 rows of a 96-well plate and 2 × 10^5 cells were added to each well, followed by incubation at 25 °C. After 72 h, 20 µL of 125 µg/mL resazurin solution was added and the plates incubated for a further 24 h. Fluorescence was determined in a FLUOstar OPTIMA plate reader (BMG Labtech, Ortenberg, Germany), reading the fluorescence intensity in arbitrary units (A.U.) at 544 nm wavelength for excitation and 620 nm wavelength for emission. The EC50 values and fluorescence data were determined and plotted to a sigmoid curve with variable slope, using the GraphPad Prism 8 software package. All EC50 values were determined on at least three independent occasions and are presented as average ± SEM.

[7] = system: L. mexicana SUPKO (ΔNT1.1/1.2/2) cells; experiment: Radiolabel transport assay in SUPKO cells; type: cell-based, Leishmania mexicana; settings: for uptake reduced in SUPKO compared to cas9: 100 nM (0.1 µM) radiolabel; for rate of uptake: SUPKO cells
Protocol: as §1

[8] = system: LmexNT1.1; experiment: Transport assay, LmexNT1.1 expressed in SUPKO; type: cell-based, Leishmania mexicana; settings: SUPKO expressing LmexNT1.1, 50 nM radiolabel
Protocol: as §1

[9] = target: L. major U1 transporter; design: method as in PMID 15796010; settings: unit printed only with the uridine value; cited from earlier work
[10] = system: LmexNT1.2; experiment: Transport assay, LmexNT1.2 expressed in SUPKO; type: cell-based, Leishmania mexicana
Protocol: as §1

[11] = target: T2, TcrNB2 (Trypanosoma cruzi, UniProt Q4DHG0); experiment: Transport assay, TcrNB2 expressed in LmexNT3-KO; type: cell-based
T2 sequence (Q4DHG0 1-440): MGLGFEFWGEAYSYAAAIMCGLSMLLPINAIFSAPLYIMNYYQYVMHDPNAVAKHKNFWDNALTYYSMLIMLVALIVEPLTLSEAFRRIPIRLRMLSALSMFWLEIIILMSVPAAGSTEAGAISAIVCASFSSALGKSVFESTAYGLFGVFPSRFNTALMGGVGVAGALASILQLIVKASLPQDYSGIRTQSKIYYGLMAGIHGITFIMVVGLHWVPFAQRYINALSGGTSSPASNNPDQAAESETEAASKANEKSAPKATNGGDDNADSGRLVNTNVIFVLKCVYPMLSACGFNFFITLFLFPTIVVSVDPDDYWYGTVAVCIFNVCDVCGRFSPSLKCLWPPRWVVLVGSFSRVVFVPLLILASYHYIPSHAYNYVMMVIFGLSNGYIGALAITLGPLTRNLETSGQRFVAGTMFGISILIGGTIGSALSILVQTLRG
Protocol: as §1

[12] = target: T2, TcrNB2; experiment: Transport assay, TcrNB2 expressed in NT1-KO; type: cell-based; settings: 50 nM [^3H]-adenosine, 100 nM [^3H]-hypoxanthine, 100 nM [^3H]-uracil; data not shown
Protocol: as §1

[13] = system: L. mexicana NT2-KO cells; experiment: Radiolabel transport assay in NT2-KO cells; type: cell-based, Leishmania mexicana; settings: for inhibition of residual [^3H]-guanosine uptake in NT2-KO: 250 µM inhibitor, 100 nM [^3H]-guanosine
Protocol: as §1

[14] = substrate: Nc1ncnc2nc[nH]c12; experiment: Transport assay, TcrNB2 expressed in LmexNT3-KO; type: cell-based, Trypanosoma cruzi
Protocol: as §1

[15] = 100 nM radiolabel, listed as [^3H]-guanosine

T1 sequence (A2E5Q3 entry or part of it): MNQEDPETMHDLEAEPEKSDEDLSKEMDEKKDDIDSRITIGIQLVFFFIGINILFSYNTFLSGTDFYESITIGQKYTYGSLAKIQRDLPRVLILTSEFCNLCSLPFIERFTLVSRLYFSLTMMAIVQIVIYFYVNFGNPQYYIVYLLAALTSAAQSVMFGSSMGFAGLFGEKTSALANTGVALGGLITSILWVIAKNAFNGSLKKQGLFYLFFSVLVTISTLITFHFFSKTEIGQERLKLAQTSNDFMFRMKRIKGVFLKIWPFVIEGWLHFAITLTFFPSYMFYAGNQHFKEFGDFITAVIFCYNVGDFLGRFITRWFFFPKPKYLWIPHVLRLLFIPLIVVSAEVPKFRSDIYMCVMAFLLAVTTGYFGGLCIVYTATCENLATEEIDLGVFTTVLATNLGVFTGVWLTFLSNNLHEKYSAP

## COc1ccc(C[C@H](N)C(=O)N[C@H]2[C@@H](O)[C@H](n3cnc4c(N(C)C)ncnc43)O[C@@H]2CO)cc1 [puromycin]
[1]
  sensitivity of cas9 cells in growth curve: confirmed

## CN(CC[C@H](N)CC(=O)N[C@H]1C=C[C@H](n2ccc(N)nc2=O)O[C@@H]1C(=O)O)C(=N)N [blasticidin]
[1]
  sensitivity of cas9 cells in growth curve: confirmed

## O=c1[nH]cnc2c1ncn2[C@@H]1O[C@H](CO)[C@@H](O)[C@H]1O [inosine]
[2]; 100 nM radiolabel
  rate of uptake: 0.061 ± 0.002 pmol(10^7 cells)^−1s^−1
[2]
  upregulation of uptake rate in NT3-KO relative to cas9: 4 fold
[3]
  Ki: 3.3 ± 0.07 µM
[4]; 100 nM radiolabel
  rate of uptake: 0.016 ± 0.002 pmol(10^7 cells)^−1s^−1
[5]; TvagENT3 in SUPKO, inhibition of 50 nM [^3H]-adenosine uptake
  Ki: 2.7 ± 0.5 µM

## N=C(N)c1ccc(OCCCCCOc2ccc(C(=N)N)cc2)cc1 [pentamidine]
[6]; NT1-KO compared with cas9
  EC50 (internal control): unchanged

## Cc1cn([C@H]2C[C@H](O)[C@@H](CO)O2)c(=O)[nH]c1=O [thymidine]
[2]
  upregulation of uptake rate in NT3-KO relative to cas9: 3.45 fold
[4]; 50 nM radiolabel
  rate of uptake: 0.0018 ± 0.0001 pmol(10^7 cells)^−1s^−1
[7]
  uptake reduced in SUPKO compared to cas9: 95.7 ± 1.8%
[7]; 50 nM radiolabel
  rate of uptake: 8.7 × 10^−5 ± 1.2 × 10^−5 pmol(10^7 cells)^−1s^−1

## O=c1ccn([C@@H]2O[C@H](CO)[C@@H](O)[C@H]2O)c(=O)[nH]1 [uridine]
[8]
  rate of uptake: 0.0012 ± 0.0001 pmol(10^7 cells)^−1s^−1
[9]
  Ki: 10.9 ± 3.2 µM
[10]; SUPKO expressing LmexNT1.2, 50 nM radiolabel
  rate of uptake: 0.0076 ± 0.0009 pmol(10^7 cells)^−1s^−1
[10]; SUPKO transfectants, p = 0.0004
  uptake faster by cells expressing NT1.2 than NT1.1: 6.3 fold
[4]; 100 nM radiolabel
  rate of uptake: 0.10 ± 0.003 pmol(10^7 cells)^−1s^−1
[7]; listed as [^3H]-uridine
  uptake reduced in SUPKO compared to cas9: 88.3% and 98.6% and 97.5%
[7]; 50 nM radiolabel
  rate of uptake: not significantly different from zero
[7]; 100 nM radiolabel
  rate of uptake: 0.0014 ± 0.00009 pmol(10^7 cells)^−1s^−1

## Nc1ncnc2[nH]cnc12 [adenine]
[11]; NT3-KO expressing TcrNB2, 100 nM radiolabel
  rate of uptake: 0.00036 ± 0.00001 pmol(10^7 cells)^−1s^−1
[11]; TcrNB2 in NT3-KO, n = 3
  Vmax: 0.26 ± 0.04 pmol(10^7 cells)^−1s^−1
[2]; 100 nM radiolabel
  rate of transport in NT3-KO as % of that in cas9: < 1%
  rate of uptake: 0.000207 ± 0.000094 pmol(10^7 cells)^−1s^−1
[2]; 100 nM radiolabel, over 15 s
  uptake in NT3-KO lower than in cas9: > 100 fold
[4]; 100 nM radiolabel
  rate of uptake: 0.0213 ± 0.0009 pmol(10^7 cells)^−1s^−1

## Nc1ncnc2c1ccn2[C@@H]1O[C@H](CO)[C@@H](O)[C@H]1O [tubercidin]
[6]; NT1-KO vs cas9, resazurin assay
  shift in tubercidin sensitivity: 60 fold
[1]
  sensitivity of cas9 cells in growth curve: confirmed

## Nc1ccn([C@@H]2O[C@H](CO)[C@@H](O)[C@H]2O)c(=O)n1 [cytidine]
[2]; listed as [^3H]-cytidine
  upregulation of uptake rate in NT3-KO relative to cas9: 3.0 fold and 3.7 fold
[7]; 500 nM radiolabel
  rate of uptake: 1.5 × 10^−5 ± 9 × 10^−6 pmol(10^7 cells)^−1s^−1
[5]; SUPKO expressing TvagENT3, 500 nM radiolabel
  rate of uptake: 1.8 × 10^−4 ± 1.3 × 10^−5 pmol(10^7 cells)^−1s^−1

## O=c1[nH]cnc2nc[nH]c12 [hypoxanthine]
[11]; 1 mM inhibitor, TcrNB2 in NT3-KO, read-out: inhibition of adenine uptake
  inhibition at 1000 µM: 31.1 ± 4.3%
[2]; 100 nM radiolabel, p = 0.72
  uptake detected in NT3-KO cells: no significant hypoxanthine uptake was detected
[2]; 100 nM radiolabel
  rate of uptake: 0.00019 ± 0.00045 pmol(10^7 cells)^−1s^−1
[12]
  effect of TcrNB2 expression on uptake in NT1-KO cells: did not increase
[13]
  inhibition of residual [^3H]-guanosine uptake in NT2-KO: completely inhibited
[7]; 100 nM radiolabel
  rate of uptake: 0.045 ± 0.004 pmol(10^7 cells)^−1s^−1

## Nc1nc2c(ncn2[C@@H]2O[C@H](CO)[C@@H](O)[C@H]2O)c(=O)[nH]1 [guanosine]
[2]
  upregulation of uptake rate in NT3-KO relative to cas9: 1.7 fold and 2.1 fold
[13]; 100 nM radiolabel
  rate of uptake lower in NT2-KO than in cas9: 84.5%
[13]
  inhibition of residual [^3H]-guanosine uptake in NT2-KO: completely inhibited
[13]; NT2-KO cells, 100 nM radiolabel
  rate of uptake: 0.0009 ± 0.00014 pmol(10^7 cells)^−1s^−1
[4]; [15]
  rate of uptake: 0.010 ± 0.0006 pmol(10^7 cells)^−1s^−1 and 0.0058 ± 0.0003 pmol(10^7 cells)^−1s^−1
[7]
  uptake reduced in SUPKO compared to cas9: 95.5%
[7]; [15]
  rate of uptake: 0.00046 ± 0.00011 pmol(10^7 cells)^−1s^−1

B1: TcrNB2 (Trypanosoma cruzi strain CL Brener) (protein)
chain: MGLGFEFWGEAYSYAAAIMCGLSMLLPINAIFSAPLYIMNYYQYVMHDPNAVAKHKNFWDNALTYYSMLIMLVALIVEPLTLSEAFRRIPIRLRMLSALSMFWLEIIILMSVPAAGSTEAGAISAIVCASFSSALGKSVFESTAYGLFGVFPSRFNTALMGGVGVAGALASILQLIVKASLPQDYSGIRTQSKIYYGLMAGIHGITFIMVVGLHWVPFAQRYINALSGGTSSPASNNPDQAAESETEAASKANEKSAPKATNGGDDNADSGRLVNTNVIFVLKCVYPMLSACGFNFFITLFLFPTIVVSVDPDDYWYGTVAVCIFNVCDVCGRFSPSLKCLWPPRWVVLVGSFSRVVFVPLLILASYHYIPSHAYNYVMMVIFGLSNGYIGALAITLGPLTRNLETSGQRFVAGTMFGISILIGGTIGSALSILVQTLRG
[14]; other: TcrNB2 in NT3-KO, 100 nM [^3H]-adenine, n = 3
  Km: 14.2 ± 2.6 µM
[14]; other: one of three independent repeats, incubation time 120 s
  Km: 14.99 µM
